Values of other authors, collected in US11667615B2, “Certain (2S)-N-[(1S)-1-cyano-2-phenylethyl]-1,4-oxazepane-2-carboxamides as dipeptidyl peptidase 1 inhibitors” (AstraZeneca AB, priority 2014, dated 2023).

Details: QWBA studies; concomitant ultra-structural changes by electron microscopy

retention in the aorta: retained selectively in the aorta
Compound: CC(c1ccc(Cl)c(Cl)c1)N1N=C(N)CC1=O (stereo not shown) [muzolimine]
